Patent US20250353891A1 (MEDIMMUNE LIMITED, priority 2022, published 2025)
Where two headings read alike, the source gives them in different places. Starred links: 1 amine or outer side, 2 acyl side, 3 side chain; linkers in the order of their positions; H or OH if unused. Non-standard residues stand in square brackets, D forms with d. Residues, ends and D or L forms follow the SMILES beside them. Groups on a side chain read outwards from the residue. *: point of attachment. C18 diacid = O=C(O)CCCCCCCCCCCCCCCCC(=O)*; Dip = N[C@H](C(=O)O)C(c1ccccc1)c1ccccc1; γGlu = O=C(O)[C@H](CCC(=O)[*:2])N[*:1]; αMeF = C[C@](N)(Cc1ccccc1)C(=O)O; AEEA = NCCOCCOCC(=O)O; Aib = CC(C)(N)C(=O)O

Tests used:
[1] = target: human glucagon receptor (hGCGR) (Homo sapiens, UniProt P47871); assay: cAMP production (HTRF) in CHO cells expressing hGCGR; assay type: cell-based; parameters: expressed in transfected cells; conditions: geometric mean
human glucagon receptor (hGCGR), sequence (P47871 26-477): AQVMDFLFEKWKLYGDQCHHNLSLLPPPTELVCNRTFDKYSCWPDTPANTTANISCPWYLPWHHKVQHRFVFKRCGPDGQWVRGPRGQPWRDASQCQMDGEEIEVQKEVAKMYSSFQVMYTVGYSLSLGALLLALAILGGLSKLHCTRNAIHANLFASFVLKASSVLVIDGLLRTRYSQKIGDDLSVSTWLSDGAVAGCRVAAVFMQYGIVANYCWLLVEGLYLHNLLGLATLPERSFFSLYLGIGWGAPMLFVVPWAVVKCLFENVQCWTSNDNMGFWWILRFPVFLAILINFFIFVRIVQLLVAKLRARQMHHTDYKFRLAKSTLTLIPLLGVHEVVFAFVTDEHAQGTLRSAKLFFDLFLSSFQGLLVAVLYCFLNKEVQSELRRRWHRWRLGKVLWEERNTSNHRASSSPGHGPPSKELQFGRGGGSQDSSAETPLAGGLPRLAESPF
In short: (§1)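 Read-out: HTRF cAMP (anti-cAMP cryptate donor, cAMP-d2 acceptor in conjugate/lysis buffer), converted to % Delta F and fitted by 4-parameter logistic for EC50. Cell densities were 1×10^5 cells/mL (hGLP-1R) or 2×10^5 cells/mL (hGCGR). Stimulation lasted 30 min at room temperature.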

[2] = target: human GLP-1 receptor (hGLP-1R) (Homo sapiens, UniProt P43220); assay: cAMP production (HTRF) in CHO cells expressing hGLP-1R; assay type: cell-based; parameters: expressed in transfected cells; conditions: for % Relative Potency Ratio: % GLP-1R activity relative to GLP-1 / % GlucR activity relative to glucagon
human GLP-1 receptor (hGLP-1R), sequence (P43220 24-463): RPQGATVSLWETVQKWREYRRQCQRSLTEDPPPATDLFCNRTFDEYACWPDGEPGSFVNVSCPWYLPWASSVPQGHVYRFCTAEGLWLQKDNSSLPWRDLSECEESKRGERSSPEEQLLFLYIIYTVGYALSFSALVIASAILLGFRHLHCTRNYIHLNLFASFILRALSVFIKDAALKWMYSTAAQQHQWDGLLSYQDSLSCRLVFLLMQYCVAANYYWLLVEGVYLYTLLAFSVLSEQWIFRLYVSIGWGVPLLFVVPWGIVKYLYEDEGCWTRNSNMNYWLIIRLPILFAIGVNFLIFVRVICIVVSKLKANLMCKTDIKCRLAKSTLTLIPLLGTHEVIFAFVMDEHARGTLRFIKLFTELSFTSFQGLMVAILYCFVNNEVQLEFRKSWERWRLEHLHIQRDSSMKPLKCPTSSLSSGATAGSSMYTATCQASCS
In short: as §1

[3] = Table 7, peptides modified at position 20, cAMP in CHO hGCGR cells, read-out: hGluc-R EC50
[4] = Table 7, peptides modified at position 20, cAMP in CHO hGLP-1R cells, geometric mean, read-out: hGLP-1R EC50
[5] = cAMP, CHO cells, 0.1% BSA, read-out: hGluc-R EC50
[6] = cAMP, CHO cells, 0.1% BSA, geometric mean, read-out: hGLP-1R EC50
[7] = hGluc-R EC50 (pM), cAMP, CHO cells, 0.1% BSA

EC50 [1, 3] [pM] | EC50 [2, 4] [pM] | % Relative Potency Ratio ([2]; Table 7) | Compound | also measured
70.3 | 312 | 0.4 | CC(C)C[C@H](NC(=O)[C@H](Cc1c[nH]c2ccccc12)NC(=O)[C@H](CCC(N)=O)NC(=O)[C@@H](NC(=O)[C@H](Cc1ccccc1)NC(=O)[C@H](CC(=O)O)NC(=O)[C@H](CCCCNC(=O)CC[C@H](NC(=O)CCCCCCCCCCCCCCCCC(=O)O)C(=O)O)NC(=O)[C@H](C)NC(=O)[C@H](CCCNC(=N)N)NC(=O)[C@H](CCCNC(=N)N)NC(=O)[C@H](CO)NC(=O)[C@H](CC(=O)O)NC(=O)[C@H](CC(C)C)NC(=O)[C@](C)(Cc1ccccc1)NC(=O)[C@H](CCCCN)NC(=O)[C@H](CO)NC(=O)[C@H](Cc1ccc(O)cc1)NC(=O)[C@H](CC(=O)O)NC(=O)[C@H](CO)NC(=O)[C@@H](NC(=O)[C@H](Cc1ccccc1)NC(=O)[C@@H](NC(=O)CNC(=O)[C@H](CCC(N)=O)NC(=O)C(C)(C)NC(=O)[C@@H](N)Cc1c[nH]cn1)[C@@H](C)O)[C@@H](C)O)C(C)C)C(=O)N[C@@H](CC(C)C)C(=O)NC(C)(C)C(=O)N[C@@H](CCC(=O)O)C(=O)O [Peptide 339] (H-H[Aib]QGTFTSDYSK[αMeF]LDSRRAK([γGlu-C18 diacid])DFVQWLL[Aib]E-OH; N-terminus assumed) | –
94.7 | 312 | 0.6 | CC(C)C[C@H](NC(=O)[C@H](Cc1c[nH]c2ccccc12)NC(=O)[C@H](CCC(N)=O)NC(=O)[C@@H](NC(=O)[C@H](Cc1ccccc1)NC(=O)[C@H](CC(=O)O)NC(=O)[C@H](CCCCNC(=O)CC[C@H](NC(=O)CCCCCCCCCCCCCCCCC(=O)O)C(=O)O)NC(=O)[C@H](C)NC(=O)[C@H](CCCNC(=N)N)NC(=O)[C@H](CCCNC(=N)N)NC(=O)[C@H](CO)NC(=O)[C@H](CC(=O)O)NC(=O)[C@H](CC(C)C)NC(=O)[C@](C)(Cc1ccccc1)NC(=O)[C@H](CCCCN)NC(=O)[C@H](CO)NC(=O)[C@H](Cc1ccc(O)cc1)NC(=O)[C@H](CC(=O)O)NC(=O)[C@H](CO)NC(=O)[C@@H](NC(=O)[C@H](Cc1ccccc1)NC(=O)[C@@H](NC(=O)CNC(=O)[C@H](CCC(N)=O)NC(=O)C(C)(C)NC(=O)[C@@H](N)Cc1c[nH]cn1)[C@@H](C)O)[C@@H](C)O)C(C)C)C(=O)N[C@@H](CC(C)C)C(=O)NC(C)(C)C(=O)N[C@H](C(=O)N[C@@H](CCC(=O)O)C(=O)O)[C@@H](C)O [Peptide 340] | –
72.8 | 363 | 0.4 | CC(C)C[C@H](NC(=O)[C@H](Cc1c[nH]c2ccccc12)NC(=O)[C@H](CCC(N)=O)NC(=O)[C@@H](NC(=O)[C@H](Cc1ccccc1)NC(=O)[C@H](CC(=O)O)NC(=O)[C@H](CCCCNC(=O)CC[C@H](NC(=O)CCCCCCCCCCCCCCCCC(=O)O)C(=O)O)NC(=O)[C@H](C)NC(=O)[C@H](CCCNC(=N)N)NC(=O)[C@H](CCCNC(=N)N)NC(=O)[C@H](CO)NC(=O)[C@H](CC(=O)O)NC(=O)[C@H](CC(C)C)NC(=O)[C@](C)(Cc1ccccc1)NC(=O)[C@H](CCCCN)NC(=O)[C@H](CO)NC(=O)[C@H](Cc1ccc(O)cc1)NC(=O)[C@H](CC(=O)O)NC(=O)[C@H](CO)NC(=O)[C@@H](NC(=O)[C@H](Cc1ccccc1)NC(=O)[C@@H](NC(=O)CNC(=O)[C@H](CCC(N)=O)NC(=O)C(C)(C)NC(=O)[C@@H](N)Cc1c[nH]cn1)[C@@H](C)O)[C@@H](C)O)C(C)C)C(=O)N[C@@H](CC(C)C)C(=O)N[C@@H](CCC(=O)O)C(=O)NC(C)(C)C(=O)N[C@H](C(=O)O)[C@@H](C)O [Peptide 341] | –
4830 | 220 | 43.4 | CC[C@H](C)[C@H](NC(=O)[C@H](Cc1c[nH]c2ccccc12)NC(=O)[C@H](CCC(N)=O)NC(=O)[C@@H](NC(=O)[C@H](Cc1ccccc1)NC(=O)[C@H](CC(=O)O)NC(=O)[C@H](CCCCNC(=O)CC[C@H](NC(=O)CCCCCCCCCCCCCCCCC(=O)O)C(=O)O)NC(=O)[C@H](C)NC(=O)[C@H](C)NC(=O)[C@H](CCCNC(=N)N)NC(=O)[C@H](CO)NC(=O)[C@H](CC(=O)O)NC(=O)[C@H](CC(C)C)NC(=O)[C@](C)(Cc1ccccc1)NC(=O)[C@H](CCCCN)NC(=O)[C@H](CO)NC(=O)[C@@H](NC(=O)[C@H](CC(=O)O)NC(=O)[C@H](CO)NC(=O)[C@@H](NC(=O)[C@H](Cc1ccccc1)NC(=O)[C@@H](NC(=O)CNC(=O)[C@H](CCC(N)=O)NC(=O)C(C)(C)NC(=O)[C@@H](N)Cc1c[nH]cn1)[C@@H](C)O)[C@@H](C)O)C(C)C)C(C)C)C(=O)N[C@@H](C)C(=O)N[C@@H](CC(N)=O)C(=O)N[C@H](C(=O)O)[C@@H](C)O [Peptide 342] | –
– | – | – | CC[C@H](C)[C@H](NC(=O)[C@H](Cc1c[nH]c2ccccc12)NC(=O)[C@H](CCCCNC(=O)CC[C@H](NC(=O)CCCCCCCCCCCCCCCCC(=O)O)C(=O)O)NC(=O)[C@@H](NC(=O)[C@H](Cc1ccccc1)NC(=O)[C@H](CC(=O)O)NC(=O)[C@H](CCC(N)=O)NC(=O)[C@H](C)NC(=O)[C@H](C)NC(=O)[C@H](CCCNC(=N)N)NC(=O)[C@H](CO)NC(=O)[C@H](CC(=O)O)NC(=O)[C@H](CC(C)C)NC(=O)[C@@H](NC(=O)[C@H](CCCCN)NC(=O)[C@H](CO)NC(=O)[C@@H](NC(=O)[C@H](CC(=O)O)NC(=O)[C@H](CO)NC(=O)[C@@H](NC(=O)[C@H](Cc1ccccc1)NC(=O)[C@H](CO)NC(=O)CNC(=O)[C@H](CCC(N)=O)NC(=O)C(C)(C)NC(=O)[C@@H](N)Cc1c[nH]cn1)[C@@H](C)O)C(C)C)C(c1ccccc1)c1ccccc1)C(C)C)C(=O)N[C@@H](C)C(=O)N[C@@H](CC(N)=O)C(=O)N[C@H](C(N)=O)[C@@H](C)O [Peptide 343] (H-H[Aib]QGSFTSDVSK[Dip]LDSRAAQDFVK([γGlu-C18 diacid])WIANT-NH2; N-terminus assumed) | EC50 [1, 5]: 126 pM; % Relative Potency Ratio [2]: 4.2; EC50 [2, 6]: 58.6 pM
– | – | – | CC[C@H](C)[C@H](NC(=O)C(C)(C)NC(=O)[C@H](CCCCNC(=O)COCCOCCNC(=O)COCCOCCNC(=O)CC[C@H](NC(=O)CCCCCCCCCCCCCCCCC(=O)O)C(=O)O)NC(=O)[C@@H](NC(=O)[C@](C)(Cc1ccccc1)NC(=O)[C@H](CC(=O)O)NC(=O)[C@H](CCC(N)=O)NC(=O)[C@H](C)NC(=O)[C@H](C)NC(=O)[C@H](CCCNC(=N)N)NC(=O)[C@H](CO)NC(=O)[C@H](CC(=O)O)NC(=O)[C@H](CC(C)C)NC(=O)C(C)(C)NC(=O)[C@H](CCCCN)NC(=O)[C@H](CO)NC(=O)[C@@H](NC(=O)[C@H](CC(=O)O)NC(=O)[C@H](CO)NC(=O)[C@@H](NC(=O)[C@](C)(Cc1ccccc1)NC(=O)[C@H](CO)NC(=O)CNC(=O)[C@H](CCC(N)=O)NC(=O)[C@H](CO)NC(=O)[C@@H](N)Cc1c[nH]cn1)[C@@H](C)O)C(C)C)C(C)C)C(=O)N[C@@H](C)C(=O)N[C@@H](CC(N)=O)C(N)=O [Peptide 344] (H-HSQGS[αMeF]TSDVSK[Aib]LDSRAAQD[αMeF]VK([AEEA-AEEA-γGlu-C18 diacid])[Aib]IAN-NH2; N-terminus assumed) | EC50 [1, 5]: > 26900 pM; EC50 [2, 6]: 135 pM
– | – | – | CC[C@H](C)[C@H](NC(=O)[C@H](Cc1c[nH]c2ccccc12)NC(=O)[C@H](CCCCNC(=O)CC[C@H](NC(=O)CCCCCCCCCCCCCCCCCCC(=O)O)C(=O)O)NC(=O)[C@@H](NC(=O)[C@H](Cc1ccccc1)NC(=O)[C@H](CC(=O)O)NC(=O)[C@H](CCC(N)=O)NC(=O)[C@H](C)NC(=O)[C@H](C)NC(=O)[C@H](CCC(N)=O)NC(=O)[C@H](CO)NC(=O)[C@H](CC(=O)O)NC(=O)[C@H](CC(C)C)NC(=O)[C@](C)(Cc1ccccc1)NC(=O)[C@H](CCCCN)NC(=O)[C@H](CO)NC(=O)[C@@H](NC(=O)[C@H](CC(=O)O)NC(=O)[C@H](CO)NC(=O)[C@@H](NC(=O)[C@H](Cc1ccccc1)NC(=O)[C@@H](NC(=O)CNC(=O)[C@H](Cc1c[nH]cn1)NC(=O)C(C)(C)NC(=O)[C@@H](N)Cc1c[nH]cn1)[C@@H](C)O)[C@@H](C)O)C(C)C)C(C)C)C(=O)N[C@@H](C)C(=O)N[C@@H](CC(N)=O)C(=O)N[C@H](C(N)=O)[C@@H](C)O [Peptide 347] | EC50 [1, 7]: 597 pM; % Relative Potency Ratio [2]: 0.2; EC50 ([2]; hGLP-1R EC50 (pM)): 4970 pM
– | – | – | CC[C@H](C)[C@H](NC(=O)[C@H](Cc1c[nH]c2ccccc12)NC(=O)[C@H](CCCCNC(=O)COCCOCCNC(=O)COCCOCCNC(=O)CC[C@H](NC(=O)CCCCCCCCCCCCCCCCC(=O)O)C(=O)O)NC(=O)[C@@H](NC(=O)[C@H](Cc1ccccc1)NC(=O)[C@H](CC(=O)O)NC(=O)[C@H](CCC(N)=O)NC(=O)[C@H](C)NC(=O)[C@H](C)NC(=O)[C@H](CCC(N)=O)NC(=O)[C@H](CO)NC(=O)[C@H](CC(=O)O)NC(=O)[C@H](CC(C)C)NC(=O)[C@](C)(Cc1ccccc1)NC(=O)[C@H](CCCCN)NC(=O)[C@H](CO)NC(=O)[C@@H](NC(=O)[C@H](CC(=O)O)NC(=O)[C@H](CO)NC(=O)[C@@H](NC(=O)[C@](C)(Cc1ccccc1)NC(=O)[C@H](CO)NC(=O)CNC(=O)[C@H](CCC(N)=O)NC(=O)C(C)(C)NC(=O)[C@@H](N)Cc1c[nH]cn1)[C@@H](C)O)C(C)C)C(C)C)C(=O)N[C@@H](C)C(=O)N[C@@H](CC(N)=O)C(=O)N[C@H](C(N)=O)[C@@H](C)O [Peptide 348] (H-H[Aib]QGS[αMeF]TSDVSK[αMeF]LDSQAAQDFVK([AEEA-AEEA-γGlu-C18 diacid])WIANT-NH2) | EC50 [1, 7]: 4110 pM; EC50 ([2]; hGLP-1R EC50 (pM)): 70.1 pM
